Test results as given in US11098052B2, “4-azapodophylotoxins compounds” (Arizona Board of Regents on behalf of Arizona State …, priority 2016, dated 2021).
Values after ≈ are worked out from the molar mass of the structure shown. Like-named read-outs stand apart in the source and are kept apart here.

Legend:
[1] = test system: P388 murine lymphocytic leukemia cell line; test: Murine P388 lymphocytic leukemia inhibitory activity; type: cell-based; conditions: Mus musculus
BXPC-3 (pancreas) = test: Human cancer cell growth inhibition, sulforhodamine B assay, BXPC-3; type: cell-based; conditions: read-out: Growth Inhibition of Human Cancer Cell Lines (GI50), BXPC-3
Experimental: (§1) Cancer Cell Line Procedures. The human cancer cell growth inhibition data were determined using the standard sulforhodamine B assay of the US National Cancer Institute as previously described.^35 In short, cells in a 5% fetal bovine serum/RPMI1640 medium were inoculated in 96-well plates and incubated for 24 h. Next, serial dilutions of the samples were added. After 48 h, the plates were fixed with trichloroacetic acid, stained with sulforhodamine B, and read with an automated microplate reader. A growth inhibition of 50% (GI50 or the drug concentration causing a 50% reduction in the net protein increase) was determined from optical density data employing Immunosoft® software.

MCF-7 (breast) = test: Human cancer cell growth inhibition, sulforhodamine B assay, MCF-7; type: cell-based; conditions: read-out: Growth Inhibition of Human Cancer Cell Lines (GI50), MCF-7
Experimental: as §1

SF-268 (CNS) = test: Human cancer cell growth inhibition, sulforhodamine B assay, SF-268; type: cell-based; conditions: read-out: Growth Inhibition of Human Cancer Cell Lines (GI50), SF-268
Experimental: as §1

NCI-H460 (lung) = test: Human cancer cell growth inhibition, sulforhodamine B assay, NCI-H460; type: cell-based; conditions: read-out: Growth Inhibition of Human Cancer Cell Lines (GI50), NCI-H460
Experimental: as §1

KM20L2 (colon) = test: Human cancer cell growth inhibition, sulforhodamine B assay, KM20L2; type: cell-based; conditions: read-out: Growth Inhibition of Human Cancer Cell Lines (GI50), KM20L2
Experimental: as §1

DU-145 (prostate) = test: Human cancer cell growth inhibition, sulforhodamine B assay, DU-145; type: cell-based; conditions: read-out: Growth Inhibition of Human Cancer Cell Lines (GI50), DU-145
Experimental: as §1

[2] = P388, read-out: Murine P388 Lymphocytic Leukemia Inhibitory Activity (ED50)

SMILES: COc1cc(C2C3=C(COC3=O)N(CCO)c3cc4c(cc32)OCO4)cc(OC)c1OC (centres unmarked) [Compound 13, 6,7-Methylenedioxy-4-(2-hydroxy-ethyl)-9-(3,4,5-trimethoxyphenyl)-4,9-dihydro-3H-furo[3,4-b]quinolin-1-one]
- IC50 ([1]; P388 cell line, read-out: Murine P388 Lymphocytic Leukemia Inhibitory Activity (ED50)): 2 µg/mL (≈ 4.53 µM)
- GI50 (BXPC-3 (pancreas); BXPC-3 pancreas, 48 h, sulforhodamine B): 0.6 µg/mL (≈ 1.36 µM)
- GI50 (MCF-7 (breast); MCF7, MCF-7 breast, 48 h, sulforhodamine B): 0.37 µg/mL (≈ 0.838 µM)
- GI50 (SF-268 (CNS); SF-268 CNS, 48 h, sulforhodamine B): 0.41 µg/mL (≈ 0.929 µM)
- GI50 (NCI-H460 (lung); NCI-H460 lung, 48 h, sulforhodamine B): 0.58 µg/mL (≈ 1.31 µM)
- GI50 (KM20L2 (colon); KM-20L2, KM20L2 colon, 48 h, sulforhodamine B): 0.52 µg/mL (≈ 1.18 µM)
- GI50 (DU-145 (prostate); DU-145 prostate, 48 h, sulforhodamine B): 1.3 µg/mL (≈ 2.94 µM)

SMILES: COc1ccc(C2C3=C(COC3=O)Nc3cc(OC)c(OC)c(OC)c32)cc1O (centres unmarked) [Compound 15c, 6,7,8-Trimethoxy-9-(3-hydroxy-4-methoxyphenyl)-4,9-dihydro-3H-furo[3,4-b]quinolin-1-one]
- IC50 [1, 2]: 0.78 µg/mL (≈ 1.95 µM)
- GI50 (BXPC-3 (pancreas); BXPC-3, 48 h): 6.5 µg/mL (≈ 16.3 µM)
- GI50 (MCF-7 (breast); MCF7, 48 h): 7 µg/mL (≈ 17.5 µM)
- GI50 (SF-268 (CNS); SF-268, 48 h): 7.3 µg/mL (≈ 18.3 µM)
- GI50 (NCI-H460 (lung); NCI-H460, 48 h): 10.1 µg/mL (≈ 25.3 µM)
- GI50 (DU-145 (prostate); DU-145, 48 h): > 10 µg/mL

SMILES: COc1cc(C2C3=C(COC3=O)N(Cc3ccc(F)cc3)c3cc4c(cc32)OCO4)cc(OC)c1OC (centres unmarked) [Compound 23, 6,7-Methylenedioxy-4-(4-fluoro-benzyl)-9-(3,4,5-trimethoxyphenyl)-4,9-dihydro-3H-furo[3,4-b]quinolin-1-one]
- IC50 [1, 2]: 1.9 µg/mL (≈ 3.76 µM)
- GI50 (BXPC-3 (pancreas); BXPC-3, 48 h): 0.046 µg/mL (≈ 0.091 µM)
- GI50 (MCF-7 (breast); MCF7, 48 h): 0.037 µg/mL (≈ 0.0732 µM)
- GI50 (SF-268 (CNS); SF-268, 48 h): 0.03 µg/mL (≈ 0.0593 µM)
- GI50 (NCI-H460 (lung); NCI-H460, 48 h): 0.031 µg/mL (≈ 0.0613 µM)
- GI50 (KM20L2 (colon); KM-20L2, 48 h): 0.033 µg/mL (≈ 0.0653 µM)
- GI50 (DU-145 (prostate); DU-145, 48 h): 0.047 µg/mL (≈ 0.093 µM)
- melting point: 246 to 247 °C

SMILES: COc1cc(C2C3=C(COC3=O)Nc3cc(OC)c(OC)c(OC)c32)cc(OC)c1OC (centres unmarked) [Compound 15, 6,7,8-Trimethoxy-9-(3,4,5-trimethoxyphenyl)-4,9-dihydro-3H-furo[3,4-b]quinolin-1-one]
- IC50 [1, 2]: 1.3 µg/mL (≈ 2.93 µM)
- GI50 (BXPC-3 (pancreas); BXPC-3, 48 h): 5.6 µg/mL (≈ 12.6 µM)
- GI50 (MCF-7 (breast); MCF7, 48 h): 1.7 µg/mL (≈ 3.83 µM)
- GI50 (SF-268 (CNS); SF-268, 48 h): 3.6 µg/mL (≈ 8.12 µM)
- GI50 (NCI-H460 (lung); NCI-H460, 48 h): 3.6 µg/mL (≈ 8.12 µM)
- GI50 (DU-145 (prostate); DU-145, 48 h): 3.3 µg/mL (≈ 7.44 µM)
- melting point: 137 to 139 °C

SMILES: COc1ccc(C2C3=C(COC3=O)Nc3cc(OC)c(OC)c(OC)c32)cc1O[Si](C)(C)C(C)(C)C (centres unmarked)
- melting point: 169 to 171 °C

SMILES: COc1cc(C2C3=C(COC3=O)N(CCN3CCOCC3)c3cc4c(cc32)OCO4)cc(OC)c1OC (centres unmarked) [Compound 22, 6,7-Methylenedioxy-4-(2-morpholin-4-yl-ethyl)-9-(3,4,5-trimethoxyphenyl)-4,9-dihydro-3H-furo[3,4-b]quinolin-1-one]
- IC50 [1, 2]: 2.6 µg/mL (≈ 5.09 µM)
- GI50 (BXPC-3 (pancreas); BXPC-3, 48 h): 3.5 µg/mL (≈ 6.86 µM)
- GI50 (MCF-7 (breast); MCF7, 48 h): 0.89 µg/mL (≈ 1.74 µM)
- GI50 (SF-268 (CNS); SF-268, 48 h): 2.6 µg/mL (≈ 5.09 µM)
- GI50 (NCI-H460 (lung); NCI-H460, 48 h): 3 µg/mL (≈ 5.88 µM)
- GI50 (KM20L2 (colon); KM-20L2, 48 h): 2.5 µg/mL (≈ 4.9 µM)
- GI50 (DU-145 (prostate); DU-145, 48 h): 2 µg/mL (≈ 3.92 µM)
- melting point: 186 to 189 °C

SMILES: COc1cc(C2C3=C(COC3=O)N(CCc3ccccn3)c3cc4c(cc32)OCO4)cc(OC)c1OC (centres unmarked) [Compound 24, 6,7-Methylenedioxy-4-(2-pyridin-2-yl-ethyl)-9-(3,4,5-trimethoxyphenyl)-4,9-dihydro-3H-furo[3,4-b]quinolin-1-one]
- IC50 [1, 2]: 2.5 µg/mL (≈ 4.97 µM)
- GI50 (BXPC-3 (pancreas); BXPC-3, 48 h): 0.38 µg/mL (≈ 0.756 µM)
- GI50 (MCF-7 (breast); MCF7, 48 h): 0.32 µg/mL (≈ 0.637 µM)
- GI50 (SF-268 (CNS); SF-268, 48 h): 0.33 µg/mL (≈ 0.657 µM)
- GI50 (NCI-H460 (lung); NCI-H460, 48 h): 0.34 µg/mL (≈ 0.677 µM)
- GI50 (KM20L2 (colon); KM-20L2, 48 h): 0.29 µg/mL (≈ 0.577 µM)
- GI50 (DU-145 (prostate); DU-145, 48 h): 0.42 µg/mL (≈ 0.836 µM)
- melting point: 239 to 241 °C

SMILES: COc1cc(C2C3=C(COC3=O)N(CCc3ccc(F)cc3)c3cc4c(cc32)OCO4)cc(OC)c1O (centres unmarked) [Compound 31, 6,7-Methylenedioxy-4-[2-(4-fluorophenyl)-ethyl]-9-(4-hydroxy-3,5-dimethoxy-phenyl)-4,9-dihydro-3H-furo[3,4-b]quinolin-1-one]
- IC50 [1, 2]: 0.21 µg/mL (≈ 0.415 µM)
- GI50 (BXPC-3 (pancreas); BXPC-3, 48 h): 1.4 µg/mL (≈ 2.77 µM)
- GI50 (MCF-7 (breast); MCF7, 48 h): 0.34 µg/mL (≈ 0.673 µM)
- GI50 (SF-268 (CNS); SF-268, 48 h): 0.48 µg/mL (≈ 0.95 µM)
- GI50 (NCI-H460 (lung); NCI-H460, 48 h): 0.36 µg/mL (≈ 0.712 µM)
- GI50 (DU-145 (prostate); DU-145, 48 h): 0.38 µg/mL (≈ 0.752 µM)

SMILES: COc1cc(C2C3=C(COC3=O)Nc3cc(OC)c(OC)c(OC)c32)cc(Br)c1OC (centres unmarked) [Compound 15a, 6,7,8-Trimethoxy-9-(3-bromo-4,5-trimethoxyphenyl)-4,9-dihydro-3H-furo[3,4-b]quinolin-1-one]
- IC50 [1, 2]: 0.11 µg/mL (≈ 0.223 µM)
- GI50 (BXPC-3 (pancreas); BXPC-3, 48 h): 0.56 µg/mL (≈ 1.14 µM)
- GI50 (MCF-7 (breast); MCF7, 48 h): 0.12 µg/mL (≈ 0.244 µM)
- GI50 (SF-268 (CNS); SF-268, 48 h): 0.11 µg/mL (≈ 0.223 µM)
- GI50 (NCI-H460 (lung); NCI-H460, 48 h): 0.35 µg/mL (≈ 0.711 µM)
- GI50 (DU-145 (prostate); DU-145, 48 h): 0.42 µg/mL (≈ 0.853 µM)
- melting point: 175 to 177 °C

SMILES: COc1cc(C2C3=C(COC3=O)N(C)c3cc4c(cc32)OCO4)cc(OC)c1OC (centres unmarked) [Compound 16, 6,7-Methylenedioxy-4-methyl-9-(3,4,5-trimethoxyphenyl)-4,9-dihydro-3H-furo[3,4-b]quinolin-1-one]
- IC50 [1, 2]: 0.027 µg/mL (≈ 0.0656 µM)
- GI50 (BXPC-3 (pancreas); BXPC-3, 48 h): 0.049 µg/mL (≈ 0.119 µM)
- GI50 (MCF-7 (breast); MCF7, 48 h): 0.034 µg/mL (≈ 0.0826 µM)
- GI50 (SF-268 (CNS); SF-268, 48 h): 0.029 µg/mL (≈ 0.0705 µM)
- GI50 (NCI-H460 (lung); NCI-H460, 48 h): 0.032 µg/mL (≈ 0.0778 µM)
- GI50 (KM20L2 (colon); KM-20L2, 48 h): 0.032 µg/mL (≈ 0.0778 µM)
- GI50 (DU-145 (prostate); DU-145, 48 h): 0.026 µg/mL (≈ 0.0632 µM)
